Measurements from ChEMBL document CHEMBL5346921, “Discovery of novel benzamide derivatives bearing benzamidophenyl and phenylacetamidophenyl scaffolds as potential antitumor agents via targeting PARP-1” (Eur J Med Chem, 2023).
Calls of active or inactive are those of the source. No cut-off for these calls is given here.

Experiments:
DLD-1 = assay: Antiproliferative activity against human DLD-1 cells assessed as reduction in cell viability incubated for 48 hrs by MTT assay; assay type: functional, cell-based; conditions: DLD-1, 48 h
[1] = Selectivity index, ratio of IC50 for cytotoxicity against human NCM460 cells to IC50 for antiproliferative activity against human HCT-116 cells; assay type: toxicity, cell-based; conditions: NCM460 cells and HCT-116 cells, read-out: Ratio IC50
[2] = target: Poly [ADP-ribose] polymerase 1 (Homo sapiens, UniProt P09874); assay: Inhibition of human PARP-1 by ELISA
Chain of Poly [ADP-ribose] polymerase 1 (P09874 whole entry): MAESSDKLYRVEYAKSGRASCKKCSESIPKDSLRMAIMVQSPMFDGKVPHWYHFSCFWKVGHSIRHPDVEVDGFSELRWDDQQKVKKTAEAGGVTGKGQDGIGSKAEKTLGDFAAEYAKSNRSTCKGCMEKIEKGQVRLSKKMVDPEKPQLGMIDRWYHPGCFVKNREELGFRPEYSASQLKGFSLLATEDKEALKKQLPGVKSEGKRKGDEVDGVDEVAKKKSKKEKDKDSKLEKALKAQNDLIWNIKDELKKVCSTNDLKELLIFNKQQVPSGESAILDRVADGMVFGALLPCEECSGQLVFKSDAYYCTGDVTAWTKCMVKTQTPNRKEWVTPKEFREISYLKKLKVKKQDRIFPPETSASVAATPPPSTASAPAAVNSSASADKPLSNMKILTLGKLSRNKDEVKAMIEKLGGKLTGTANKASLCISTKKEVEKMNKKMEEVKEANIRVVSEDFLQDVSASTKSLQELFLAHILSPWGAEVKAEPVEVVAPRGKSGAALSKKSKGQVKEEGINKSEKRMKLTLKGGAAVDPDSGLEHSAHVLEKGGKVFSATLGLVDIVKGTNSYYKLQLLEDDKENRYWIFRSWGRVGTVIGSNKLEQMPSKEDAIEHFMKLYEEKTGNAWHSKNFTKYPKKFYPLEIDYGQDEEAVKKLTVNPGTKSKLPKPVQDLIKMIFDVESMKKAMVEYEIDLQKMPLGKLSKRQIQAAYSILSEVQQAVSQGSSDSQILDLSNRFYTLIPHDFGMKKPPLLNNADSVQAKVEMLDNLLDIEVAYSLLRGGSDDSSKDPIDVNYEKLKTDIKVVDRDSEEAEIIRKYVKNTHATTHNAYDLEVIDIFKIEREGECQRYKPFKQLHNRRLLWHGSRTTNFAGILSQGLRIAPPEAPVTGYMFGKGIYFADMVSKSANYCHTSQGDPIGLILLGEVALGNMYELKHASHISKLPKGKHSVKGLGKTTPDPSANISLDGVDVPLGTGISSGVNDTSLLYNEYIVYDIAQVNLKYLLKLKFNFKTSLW

HCT-116 [3] = assay: Inhibition of colony formation in human HCT-116 cells at 3 uM pretreated for 48 hrs followed by replacement of fresh medium and measured every 3 days by crystal violet staining based analysis; assay type: functional
HCT-116 [4] = assay: Inhibition of cell migration in human HCT-116 cells at 1 uM incubated for 24 hrs by wound healing assay; assay type: functional
HCT-116 [5] = assay: Inhibition of cell migration in human HCT-116 cells at 1 uM incubated for 48 hrs by wound healing assay; assay type: functional
HCT-116 [6] = assay: Inhibition of cell migration in human HCT-116 cells at 3 uM incubated for 48 hrs by wound healing assay; assay type: functional
HCT-116 [7] = assay: Induction of cell cycle arrest in human HCT-116 cells assessed as accumulation of cells at G2/M phase at 0.3 uM incubated for 48 hrs by PI staining based flow cytometry (reference value: 24.7%); assay type: functional
HCT-116 [8] = assay: Induction of cell cycle arrest in human HCT-116 cells assessed as accumulation of cells at G2/M phase at 1.5 uM incubated for 48 hrs by PI staining based flow cytometry (reference value: 24.7%); assay type: functional
HCT-116 [9] = assay: Induction of cell cycle arrest in human HCT-116 cells assessed as accumulation of cells at G0/G1 phase at 7.5 uM incubated for 48 hrs by PI staining based flow cytometry (reference value: 62.1%); assay type: functional
HCT-116 [10] = assay: Induction of cell cycle arrest in human HCT-116 cells assessed as accumulation of cells at G2/M phase at 7.5 uM incubated for 48 hrs by PI staining based flow cytometry (reference value: 24.7%); assay type: functional
HCT-116 [11] = assay: Induction of cell cycle arrest in human HCT-116 cells assessed as accumulation of cells at G2/M phase at 0.3 uM incubated for 72 hrs by PI staining based flow cytometry (reference value: 25.4%); assay type: functional
HCT-116 [12] = assay: Induction of cell cycle arrest in human HCT-116 cells assessed as accumulation of cells at G0/G1 phase at 1.5 uM incubated for 72 hrs by PI staining based flow cytometry (reference value: 57.2%); assay type: functional
HCT-116 [13] = assay: Induction of cell cycle arrest in human HCT-116 cells assessed as accumulation of cells at G2/M phase at 1.5 uM incubated for 72 hrs by PI staining based flow cytometry (reference value: 25.4%); assay type: functional
HCT-116 [14] = assay: Induction of cell cycle arrest in human HCT-116 cells assessed as accumulation of cells at G2/M phase at 7.5 uM incubated for 72 hrs by PI staining based flow cytometry (reference value: 25.4%); assay type: functional
HCT-116 [15] = assay: Induction of apoptosis in human HCT-116 cells assessed as viable cells at 0.3 uM incubated for 48 hrs by AnnexinV-FITC/PI staining based flow cytometry (reference value: 97.89%); assay type: functional; conditions: read-out: Activity
HCT-116 [16] = assay: Induction of apoptosis in human HCT-116 cells assessed as early apoptotic cells at 0.3 uM incubated for 48 hrs by AnnexinV-FITC/PI staining based flow cytometry (reference value: 2.11%); assay type: functional
HCT-116 [17] = assay: Induction of apoptosis in human HCT-116 cells assessed as late apoptotic cells at 0.3 uM incubated for 48 hrs by AnnexinV-FITC/PI staining based flow cytometry (reference value: 0%); assay type: functional
HCT-116 [18] = assay: Induction of apoptosis in human HCT-116 cells assessed as necrotic cells at 0.3 uM incubated for 48 hrs by AnnexinV-FITC/PI staining based flow cytometry (reference value: 0%); assay type: functional
HCT-116 [19] = assay: Induction of apoptosis in human HCT-116 cells assessed as early apoptotic cells at 1.5 uM incubated for 48 hrs by AnnexinV-FITC/PI staining based flow cytometry (reference value: 2.11%); assay type: functional
HCT-116 [20] = assay: Induction of apoptosis in human HCT-116 cells assessed as early apoptotic cells at 7.5 uM incubated for 48 hrs by AnnexinV-FITC/PI staining based flow cytometry (reference value: 2.11%); assay type: functional
HCT-116 [21] = assay: Induction of apoptosis in human HCT-116 cells assessed as late apoptotic cells at 0.3 uM incubated for 72 hrs by AnnexinV-FITC/PI staining based analysis (reference value: 0%); assay type: functional
HCT-116 [22] = assay: Induction of apoptosis in human HCT-116 cells assessed as viable cells at 1.5 uM incubated for 72 hrs by AnnexinV-FITC/PI staining based analysis (reference value: 98.95%); assay type: functional; conditions: read-out: Activity
HCT-116 [23] = assay: Induction of apoptosis in human HCT-116 cells assessed as late apoptotic cells at 1.5 uM incubated for 72 hrs by AnnexinV-FITC/PI staining based analysis (reference value: 0%); assay type: functional
HCT-116 [24] = assay: Induction of apoptosis in human HCT-116 cells assessed as necrotic cells at 1.5 uM incubated for 72 hrs by AnnexinV-FITC/PI staining based analysis (reference value: 0%); assay type: functional
HCT-116 [25] = assay: Induction of mitochondrial membrane potential loss in human HCT-116 cells assessed as increase in monomer JC-1 level by measuring green fluorescence intensity at 3 uM incubated for 48 hrs by immunofluorescence analysis; assay type: functional, cell-based
HCT-116 [26] = assay: Induction of mitochondrial membrane potential loss in human HCT-116 cells assessed as JC-1 aggregate level by measuring red fluorescence intensity at 0.3 uM incubated for 48 hrs by JC-1 staining based flow cytometry (reference value: 96.72%); assay type: functional
HCT-116 [27] = assay: Induction of mitochondrial membrane potential loss in human HCT-116 cells assessed as JC-1 aggregate level by measuring red fluorescence intensity at 3 uM incubated for 48 hrs by JC-1 staining based flow cytometry (reference value: 96.72%); assay type: functional
HCT-116 [28] = assay: Induction of mitochondrial membrane potential loss in human HCT-116 cells assessed as JC-1 monomer level by measuring green fluorescence intensity at 0.3 uM incubated for 48 hrs by JC-1 staining based flow cytometry (reference value: 3.28%); assay type: functional
HCT-116 [29] = assay: Induction of mitochondrial membrane potential loss in human HCT-116 cells assessed as JC-1 monomer level by measuring green fluorescence intensity at 3 uM incubated for 48 hrs by JC-1 staining based flow cytometry (reference value: 3.28%); assay type: functional
HCT-116 [30] = assay: Induction of apoptosis in human HCT-116 cells assessed as increase in cleaved caspase-3 protein expression incubated for 48 hrs by western blot analysis; assay type: functional, cell-based; conditions: dose 0.3-3 µM
HCT-116 [31] = assay: Induction of apoptosis in human HCT-116 cells assessed as increase in cleaved PARP protein expression incubated for 48 hrs by western blot analysis; assay type: functional, cell-based; conditions: dose 0.3-3 µM
HCT-116 [32] = assay: cells; conditions: Homo sapiens, HCT-116, 48 h
SW480 = assay: cells; conditions: Homo sapiens, SW480, 48 h
Description: Antiproliferative activity against human SW480 cells assessed as reduction in cell viability incubated for 48 hrs by MTT assay

IC50 (DLD-1): 2830 nM
IC50 [2]: 0.25 nM
IC50 (HCT-116 [32]): 300 nM
IC50 (SW480): 33700 nM
SMILES: NC(=O)c1ccccc1OCc1cccc(NC(=O)c2ccc(Br)cc2)c1
selectivity ratio [1]: 1640
inhibition at 3 µM (HCT-116 [3]): 100%
inhibition at 1 µM (HCT-116 [4]): 18%
inhibition at 1 µM (HCT-116 [5]): 36.3%
inhibition at 3 µM (HCT-116 [6]): 43.2%
Activity (HCT-116 [7]): 28.6%
Activity (HCT-116 [8]): 33%
Activity (HCT-116 [9]): 49.7%
Activity (HCT-116 [10]): 41%
Activity (HCT-116 [11]): 29.6%
Activity (HCT-116 [12]): 45.1%
Activity (HCT-116 [13]): 35.5%
Activity (HCT-116 [14]): 45.5%
viability at 0.3 µM (HCT-116 [15]): 90.4%
Activity (HCT-116 [16]): 9.12%
Activity (HCT-116 [17]): 0.25%
Activity (HCT-116 [18]): 0.23%
Activity (HCT-116 [19]): 22.69%
Activity (HCT-116 [20]): 40.9%
Activity (HCT-116 [21]): 0%
viability at 1.5 µM (HCT-116 [22]): 69.3%
Activity (HCT-116 [23]): 0.26%
Activity (HCT-116 [24]): 0.01%
Activity (HCT-116 [25]): Active
Activity (HCT-116 [26]): 90.62%
Activity (HCT-116 [27]): 49.97%
Activity (HCT-116 [28]): 9.38%
Activity (HCT-116 [29]): 50.03%
Activity (HCT-116 [30]): Dose-Dependent Effect
Activity (HCT-116 [31]): Dose-Dependent Effect
